Common to all, as to type: cell-based, Human
Assay [1] relates to Jurkat cells. The assay is described as follows: 24-hour monitoring of extracellular ROS levels of drug-treated Jurkat cells using the nanowire biosensor. As to conditions: t=6 hours, normalized by number of live cells. On the procedure: For measurements of cellular metabolites/activity, cells were cultured in the chip, namely, in the culture compartment thereof (see, for example, FIG. 1A), while placing the chip in an incubator during measurements. A sample was introduced to the sensing compartment at 20 μl min^-1 by using a syringe pump. Human T lymphocytes, Jurkat (TIB-152, ATCC), were cultured and incubated at 37° C. under a humidified 5% CO2 atmosphere. The culture medium used was RPMI 1640 medium (52400, GIBCO) with 10% fetal bovine serum (FBS; 04-001-1A, Biological Industry) and 1% penicillin/streptomycin (15140, GIBCO). During experiments, cells were re-suspended in phenol red-free medium (11835-063, GIBCO) in the presence or absence of a drug, either methotrexate hydrate (MTX; […], SIGMA) or 2-deoxy-D-glucose (2DG; […], SIGMA), at a density of 1×10^6 cells/ml. Cellular samples were dispensed into the wells of the sensing chip (see FIGS. 1A and 1B) in an incubator. 24-hour monitoring of metabolic activity of drug-treated Jurkat cells by measuring extracellular ROS levels using the nanowire biosensor, was performed and the obtained data is presented in FIGS. 6A-G. Measured ROS levels were normalized by the number of live cells.

In assay [2] the test system is Jurkat cells. Description: Cell proliferation rate / viability of drug-treated Jurkat cells (trypan blue, hemocytometer). As to conditions: for cell viability: 24-hour viability observation. How it is done: Human T lymphocytes, Jurkat (TIB-152, ATCC), were cultured and incubated at 37° C. under a humidified 5% CO2 atmosphere. The culture medium used was RPMI 1640 medium (52400, GIBCO) with 10% fetal bovine serum (FBS; 04-001-1A, Biological Industry) and 1% penicillin/streptomycin (15140, GIBCO). During experiments, cells were re-suspended in phenol red-free medium (11835-063, GIBCO) in the presence or absence of a drug, either methotrexate hydrate (MTX; […], SIGMA) or 2-deoxy-D-glucose (2DG; […], SIGMA), at a density of 1×10^6 cells/ml. Cell viability was estimated by using a hemocytometer to count trypan blue-stained cells. Relative cell count, presented in FIGS. 6B and 6E-6F, is a ratio of the cell count at t=24 hours to the initial cell count.

Assay [3] concerns Jurkat cells. Description: Extracellular lactate level of 2DG-treated Jurkat cells (lactate oxidase, nanowire biosensor). As to conditions: after 24 hours. On the procedure:
For lactate sensing, 0.1 unit/ml of lactate oxidase (LOX; L0638, SIGMA) was added in phenol red-free medium to convert lactate to pyruvate and H2O2 before lactate reaches the FET array (as depicted in FIG. 1D).
During experiments, cells were re-suspended in phenol red-free medium (11835-063, GIBCO) in the presence or absence of a drug, either methotrexate hydrate (MTX; M8407, SIGMA) or 2-deoxy-D-glucose (2DG; D6134, SIGMA), at a density of 1×10^6 cells/ml.
The correlation between extracellular lactate level of 2DG-treated Jurkat cells and a resultant cell proliferation rate after 24 hours was investigated.

Assay [4] concerns Jurkat cells. The assay is described as follows: pH sensing of drug-treated Jurkat cells (reductant-added medium, nanowire FET). The following applies: 24-hour monitoring, culture medium. From the text: A conversion of the modified FET into a pH sensor was achieved by using a reductant-added solution. After supplementing a culture medium with 0.1% v/v DEHA to reduce the modified FET surface, surface proton density varied by protonation or by deprotonation dominantly changes the measured current.
For pH sensing, 0.1% v/v DEHA was supplemented in the sensing medium to reduce the 9,10-anthraquinone monolayer on the FET surface to obtain 9,10-dihydroxyanthracene (see also FIG. 1d) and H2O2 simultaneously. Therefore, no significant amount of H2O2 in a DEHA-supplemented medium altered a measured signal. As a result, surface proton density, varied by protonation or by deprotonation, dominantly changes an acquired signal.

On to `O=CC[C@@H](O)[C@H](O)[C@H](O)CO` [2DG, 2-deoxy-D-glucose], for which the ROS level result with Jurkat cells [1] was “noticeable decrease”. Moreover, the cell viability result with Jurkat cells [2] is listed as “anti-proliferative activity”. Moreover, in the assay with Jurkat cells [2] (after 24 hours, relative cell count = count at t=24 hours / initial count), the cell proliferation rate result is reported as “reduced”. In addition, the cellular lactate secretion result in the assay on Jurkat cells [3] is listed as “decreased”. Also, the “pH of treated cells versus control” value with Jurkat cells [4] is “more basic than the control”.
`CN(Cc1cnc2nc(N)nc(N)c2n1)c1ccc(C(=O)N[C@@H](CCC(=O)O)C(=O)O)cc1` [MTX, methotrexate hydrate]: in the assay with Jurkat cells [1], the ROS level entry was “noticeable decrease”. Also, in the assay on Jurkat cells [2], the cell viability result is on record as “anti-proliferative activity”.

The values are drawn from patent US11275078B2, “Method and system for sensing” (Ramot at Tel-Aviv University Ltd., priority 2015, dated 2022).
